Experimental data published in US20220257595A1, “MACITENTAN FOR USE IN TREATING PORTOPULMONARY HYPERTENSION” (ACTELION PHARMACEUTICALS LTD, priority 2019, published 2022).

Key:
patients with PoPH [1] = assay: PORTICO: serum NT-proBNP (incl. post-hoc 300 ng/L threshold shift); type: in vivo, human
Method: (v) Serum NT-proBNP: A blood sample was drawn at Baseline (Visit 2/Randomization), EOT-DB, and/or EOT-OL (whichever came last) for the analysis of serum NT-proBNP. Serum NT-proBNP samples were shipped to the central laboratory on dry ice as soon as possible after the blood sample had been drawn or stored frozen at −20° C. (−4° F.)±2° C. (±3.6° F.) until the shipment.
Statistical analysis: The change from baseline to Week 12 in mRAP, mPAP, cardiac index, TPR and SVO2 were analyzed on the FAS (with imputation) using an ANCOVA with factors for treatment group, background PAH-specific therapy at baseline (Yes/No as per IXRS, randomization stratification factor), region (Europe/North America/Latin America as per IXRS, randomization stratification factor) and a covariate for baseline corresponding variable. Other RHC variables are listed only. WHO FC is summarized on the FAS (with imputation) by time point and treatment group using frequency tables. […] Worsening was analyzed using a logistic regression model (exact) with covariates for treatment group, background PAH-specific therapy at baseline (Yes/No as per IXRS, randomization stratification factor) and region (Europe/North America/Latin America as per IXRS, randomization stratification factor). […] Change from baseline in 6MWD (up to Week 12) was analyzed using a mixed-effect model repeated measure (MMRM) with factors for treatment group, time point, treatment by time interaction, background PAH-specific therapy at baseline (Yes/No as per IXRS, randomization stratification factor) and region (Europe/North America/Latin America as per IXRS, randomization stratification factor), and covariates for baseline 6MWD and WHO FC. […] The ratio versus baseline in NT-proBNP was log-transformed and analyzed using an ANCOVA with covariates for treatment group, background PAH-specific therapy at baseline (Yes/No as per IXRS, randomization stratification factor), region (Europe/North America/Latin America as per IXRS, randomization stratification factor) and baseline log NT-proBNP. […]

patients with PoPH [2] = assay: PORTICO safety: Child-Pugh classification and MELD score; type: in vivo
Description: (§1) For the evaluation of treatment-emergent safety endpoints in the DB phase, the observation period for each individual subject started at the time of the first administration of macitentan or placebo and ended with the start of OL treatment or 30 days after DB treatment discontinuation (whichever occurred first). The safety variables listed below apply to the DB treatment-emergent period and the macitentan treatment-emergent period. The DB treatment-emergent period was defined as the period from the DB treatment start date up to the EOT-DB+30 days or to the EOT-DB for patients entering OL. The macitentan treatment-emergent period was defined as the period from the first intake of macitentan up to end of macitentan treatment (EOMT)+30 days. EOMT was defined as EOT-DB (for patient who received macitentan only in the DB period) or EOT-OL when applicable. […]

patients with PoPH [3] = assay: PORTICO safety: vital signs, body weight, BMI; conditions: in vivo
Description: as §1

CCCNS(=O)(=O)Nc1ncnc(OCCOc2ncc(Br)cn2)c1-c1ccc(Br)cc1 [macitentan, N-[5-(4-Bromophenyl)-6-[2-[(5-bromo-2-pyrimidinyl)oxy]ethoxy]-4-pyrimidinyl]-N′-propylsulfamide]
Patients with NT-proBNP above 300 ng/L at baseline decreasing to below threshold after 12 weeks (patients with PoPH [1]; 6 of 16 macitentan patients, FAS no imputation, post-hoc): 37.5%
Geometric mean ratio of Week 12 to baseline NT-proBNP (patients with PoPH [1]; FAS with imputation, macitentan group): 0.86
NT pro-BNP shift: Week 12 Category 2 (patients with PoPH [1]; Total, Full analysis set, 10 mg, N = 43): 9 n (%)
Patients with worsening in Child-Pugh category (patients with PoPH [2]; DB phase, macitentan group n=23): none
Median MELD score at Week 12 (patients with PoPH [2]; DB phase, range 6-15): 10
Patients worsening from Child-Pugh category A to B during macitentan treatment (patients with PoPH [2]; combined DB+OL phase, patient had placebo in DB phase): 1 patient
Effect on vital signs, body weight or BMI (patients with PoPH [3]): no indication of any notable effect
